Key:
[1] = molecular target: T1, SMARCA2-HiBiT HeLa cells (protein which is expressed from the SMARCA2 gene) (Homo sapiens, UniProt P51531); assay: SMARCA2 degradation assay (HiBiT-fusion HeLa cell line, 24 h, luminescence); assay type: cell-based
T1 construct: protein which is expressed from the SMARCA2 and SMARCA4 genes; host or cells: HeLa (SMARCA2-HiBiT engineered line)
In short: (§1)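 In this 24-hour cellular degradation readout, HiBiT-tagged HeLa lines received compound at up to typically 10 μM down to 300 pM in 10 points. After lysis with LgBiT and substrate, luminescence signals were used to build dose-response curves for DC50.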

[2] = molecular target: T2, SMARCA4-HiBiT HeLa cells (protein which is expressed from the SMARCA4 gene) (Homo sapiens, UniProt P51532); assay: SMARCA4 degradation assay (HiBiT-fusion HeLa cell line, 24 h, luminescence); assay type: cell-based
T2 construct: protein which is expressed from the SMARCA2 and SMARCA4 genes; host or cells: HeLa (SMARCA4-HiBiT engineered line)
In short: as §1

T1 sequence (P51531 whole entry, the tested form may be a part): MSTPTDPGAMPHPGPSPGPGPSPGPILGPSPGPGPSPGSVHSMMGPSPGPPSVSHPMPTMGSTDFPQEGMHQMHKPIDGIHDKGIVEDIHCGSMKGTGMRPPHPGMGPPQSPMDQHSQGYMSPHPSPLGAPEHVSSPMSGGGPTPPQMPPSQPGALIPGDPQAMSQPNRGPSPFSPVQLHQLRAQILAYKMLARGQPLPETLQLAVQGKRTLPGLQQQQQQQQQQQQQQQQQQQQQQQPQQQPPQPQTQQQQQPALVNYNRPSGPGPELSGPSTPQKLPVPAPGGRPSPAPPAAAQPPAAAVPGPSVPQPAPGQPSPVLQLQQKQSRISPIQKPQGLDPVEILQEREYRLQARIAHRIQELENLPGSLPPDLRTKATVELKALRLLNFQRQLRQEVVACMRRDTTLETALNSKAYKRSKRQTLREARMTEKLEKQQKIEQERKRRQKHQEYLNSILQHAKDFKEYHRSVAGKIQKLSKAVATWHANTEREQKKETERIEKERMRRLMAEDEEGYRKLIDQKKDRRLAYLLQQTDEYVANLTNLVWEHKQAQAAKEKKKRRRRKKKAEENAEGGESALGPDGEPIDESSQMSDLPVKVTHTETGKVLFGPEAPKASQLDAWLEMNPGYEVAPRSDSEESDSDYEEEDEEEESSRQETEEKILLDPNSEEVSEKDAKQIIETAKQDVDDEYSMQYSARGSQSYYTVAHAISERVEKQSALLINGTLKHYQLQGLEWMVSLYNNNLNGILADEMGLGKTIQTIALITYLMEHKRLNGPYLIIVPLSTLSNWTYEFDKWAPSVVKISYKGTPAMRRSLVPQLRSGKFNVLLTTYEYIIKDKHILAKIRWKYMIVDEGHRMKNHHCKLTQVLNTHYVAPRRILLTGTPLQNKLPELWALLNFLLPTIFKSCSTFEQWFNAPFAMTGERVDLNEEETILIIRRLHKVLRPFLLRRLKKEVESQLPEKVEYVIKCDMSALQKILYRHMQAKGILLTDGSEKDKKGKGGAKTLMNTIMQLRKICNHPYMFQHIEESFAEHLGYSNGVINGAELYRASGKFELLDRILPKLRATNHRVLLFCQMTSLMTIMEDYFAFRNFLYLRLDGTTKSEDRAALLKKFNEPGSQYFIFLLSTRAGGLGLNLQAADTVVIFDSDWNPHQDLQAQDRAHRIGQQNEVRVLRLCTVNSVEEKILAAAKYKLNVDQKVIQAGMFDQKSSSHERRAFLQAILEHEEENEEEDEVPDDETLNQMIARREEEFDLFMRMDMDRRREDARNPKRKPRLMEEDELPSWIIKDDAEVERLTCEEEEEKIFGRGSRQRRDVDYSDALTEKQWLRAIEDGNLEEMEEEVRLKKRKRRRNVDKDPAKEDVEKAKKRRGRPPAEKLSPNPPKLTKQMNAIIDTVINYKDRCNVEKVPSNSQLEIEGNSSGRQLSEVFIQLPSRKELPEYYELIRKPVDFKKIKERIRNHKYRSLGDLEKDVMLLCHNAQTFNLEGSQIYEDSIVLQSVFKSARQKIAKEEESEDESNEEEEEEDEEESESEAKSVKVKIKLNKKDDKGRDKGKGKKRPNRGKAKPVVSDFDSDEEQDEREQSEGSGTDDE
T2 sequence (P51532 whole entry, the tested form may be a part): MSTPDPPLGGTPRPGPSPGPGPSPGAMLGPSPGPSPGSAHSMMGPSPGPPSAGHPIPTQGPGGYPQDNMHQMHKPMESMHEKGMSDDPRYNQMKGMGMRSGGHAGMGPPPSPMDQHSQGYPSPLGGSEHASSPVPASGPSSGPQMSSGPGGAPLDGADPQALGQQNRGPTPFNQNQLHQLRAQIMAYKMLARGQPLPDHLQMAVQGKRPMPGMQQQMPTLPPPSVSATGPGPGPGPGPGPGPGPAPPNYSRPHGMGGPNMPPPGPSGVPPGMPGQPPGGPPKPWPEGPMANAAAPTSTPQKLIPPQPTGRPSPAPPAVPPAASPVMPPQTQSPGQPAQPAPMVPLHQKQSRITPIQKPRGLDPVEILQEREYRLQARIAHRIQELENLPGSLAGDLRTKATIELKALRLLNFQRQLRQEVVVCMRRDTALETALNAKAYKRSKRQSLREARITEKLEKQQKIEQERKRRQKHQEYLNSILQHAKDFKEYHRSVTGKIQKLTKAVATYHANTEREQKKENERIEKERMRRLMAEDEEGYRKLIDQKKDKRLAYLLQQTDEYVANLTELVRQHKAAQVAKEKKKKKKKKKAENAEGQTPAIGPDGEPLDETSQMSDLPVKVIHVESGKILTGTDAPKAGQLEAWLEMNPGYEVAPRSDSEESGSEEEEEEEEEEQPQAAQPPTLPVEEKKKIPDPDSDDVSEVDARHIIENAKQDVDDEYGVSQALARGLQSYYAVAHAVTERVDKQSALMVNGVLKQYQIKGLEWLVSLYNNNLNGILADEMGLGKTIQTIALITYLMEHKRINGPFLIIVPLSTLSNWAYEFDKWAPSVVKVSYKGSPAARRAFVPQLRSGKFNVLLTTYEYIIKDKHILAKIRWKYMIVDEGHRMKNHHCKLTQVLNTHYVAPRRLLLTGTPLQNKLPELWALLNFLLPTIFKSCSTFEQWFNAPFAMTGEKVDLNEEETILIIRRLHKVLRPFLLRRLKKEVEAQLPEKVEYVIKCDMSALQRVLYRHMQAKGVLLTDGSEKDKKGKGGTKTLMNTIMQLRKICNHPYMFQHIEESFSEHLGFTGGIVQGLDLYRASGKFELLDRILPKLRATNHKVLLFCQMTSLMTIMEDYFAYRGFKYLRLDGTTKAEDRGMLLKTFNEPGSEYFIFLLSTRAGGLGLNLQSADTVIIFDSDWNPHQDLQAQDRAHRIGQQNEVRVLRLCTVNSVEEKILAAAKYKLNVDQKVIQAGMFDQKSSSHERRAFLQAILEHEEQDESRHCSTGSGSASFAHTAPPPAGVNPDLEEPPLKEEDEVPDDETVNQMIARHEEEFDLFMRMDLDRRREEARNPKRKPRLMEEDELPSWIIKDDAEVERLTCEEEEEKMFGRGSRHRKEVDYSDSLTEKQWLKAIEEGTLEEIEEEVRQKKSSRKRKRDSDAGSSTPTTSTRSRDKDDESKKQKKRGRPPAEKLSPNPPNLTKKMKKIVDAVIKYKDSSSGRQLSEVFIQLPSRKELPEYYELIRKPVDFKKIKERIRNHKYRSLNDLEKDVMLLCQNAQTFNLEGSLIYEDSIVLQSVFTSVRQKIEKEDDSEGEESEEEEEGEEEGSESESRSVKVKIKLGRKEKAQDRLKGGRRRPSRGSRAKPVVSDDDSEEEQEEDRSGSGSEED

| SMILES | DC50 [1] | SMARCA2 % Degradation @ 1 μM ([1]; 1 μM) | DC50 [2] | inhibition at 1 µM ([2]; 1 μM) | SMARCA2 % Degradation @ 1 μM ([1]; @ 1 μM) | inhibition at 1 µM ([2]; @ 1 μM) |
| --- | --- | --- | --- | --- | --- | --- |
| C[C@@H]1CCN(c2cc(-c3ccccc3O)nnc2N)CCN1c1cc(C#CCn2ccnc2)ncc1F [Compound P-417, 0-{5-[(R)-4-{5-fluoro-2-[3-(1-imidazolyl)-1-propynyl]-4-pyridyl}-5-methyl-1,4-diazepan-1-yl]-6-amino-3-pyridazinyl} phenol] | 50 to 500 nM | ++ (++=30-70%) | 50 to 500 nM | 30 to 70% | – | – |
| C[C@@H]1CCN(c2cc(-c3ccccc3O)nnc2N)CCN1c1ccc(C#N)c(C#CCN2CC3CC2C3)n1 [Compound P-393, 6-{(R)-4-[3-amino-6-(o-hydroxyphenyl)-4-pyridazinyl]-7-methyl-1,4-diazepan-1-yl}-2-{3-(2-azabicyclo[2.1.1]hex-2-yl)-1-propynyl} nicotinonitrile] | < 50 nM | +++ (+++=>70%) | < 50 nM | 30 to 70% | – | – |
| Nc1nnc(-c2ccccc2O)cc1N1CCCN(c2ccnc(C#CCn3ccc(-c4ccccn4)n3)n2)CC1 [Compound P-138, 2-(6-amino-5-(4-(2-(3-(3-(pyridin-2-yl)-1H-pyrazol-1-yl)prop-1-yn-1-yl)pyrimidin-4-yl)-1,4-diazepan-1-yl)pyridazin-3-yl)phenol] | 50 to 500 nM | – | 50 to 500 nM | – | +++ (+++=>70%) | 30 to 70% |
| Nc1nnc(-c2ccccc2O)cc1N1CCN(c2ccnc(C#CCNC(=O)c3ccn(CC(F)(F)F)n3)n2)CC1 [Compound P-9, N-[3-(4-{4-[3-amino-6-(2-hydroxyphenyl)pyridazin-4-yl]piperazin-1-yl}pyrimidin-2-yl)prop-2-yn-1-yl]-1-(2,2,2-trifluoroethyl)-1H-pyrazole-3-carboxamidc] | 50 to 500 nM | – | < 50 nM | – | ++ (++=30-70%) | 30 to 70% |
| COCC#Cc1nc(N2CCN(c3cc(-c4ccccc4O)nnc3N)CC[C@H]2C)ccc1C#N [Compound P-400, 6-{(R)-4-[3-amino-6-(o-hydroxyphenyl)-4-pyridazinyl]-7-methyl-1,4-diazepan-1-yl}-2-(3-methoxy-1-propynyl)nicotinonitrile] | 500 to 5000 nM | – | > 5000 nM | – | – | – |
| C[C@@H]1CCN(c2cc(-c3ccccc3O)nnc2N)CCN1c1ccnc(C#CC2CN(CC(F)(F)F)C2)n1 [Compound P-173, o-{5-[(R)-5-methyl-4-(2-{2-[1-(2,2,2-trifluoroethyl)-3-azetidinyl]ethynyl}-4-pyrimidinyl)-1,4-diazepan-1-y1]-6-amino-3-pyridazinyl}phenol] | < 50 nM | – | 50 to 500 nM | – | +++ (+++=>70%) | 30 to 70% |
| Cc1nc(C)n(CC#Cc2nccc(N3CCN(c4cc(-c5ccccc5O)nnc4N)CC[C@H]3C)n2)c1C [Compound P-185, o-{5-[(R)-5-methyl-4-{2-[3-(2,4,5-trimethyl-1-imidazolyl)-1-propynyl]-4-pyrimidinyl}-1,4-diazepan-1-y1]-6-amino-3-pyridaziny1} phenol] | 50 to 500 nM | – | 50 to 500 nM | – | +++ (+++=>70%) | > 70% |
| Nc1nnc(-c2ccccc2O)cc1N1CCN(c2ccnc(C#CCNC(=O)c3cc4ccc(F)cc4o3)n2)CC1 [Compound P-52, N-(3-(4-(4-(3-amino-6-(2-hydroxyphenyl)pyridazin-4-yl)piperazin-1-yl)pyrimidin-2-yl)prop-2-yn-1-yl)-6-fluorobenzofuran-2-carboxamide] | 50 to 500 nM | – | 50 to 500 nM | – | ++ (++=30-70%) | 30 to 70% |
| Cc1nn2ccn(CC#Cc3nccc(N4CCCN(c5cc(-c6ccccc6O)nnc5N)CC4)n3)c(=O)c2c1C [Compound P-115, 5-(3-(4-(4-(3-amino-6-(2-hydroxyphenyl)pyridazin-4-yl)-1,4-diazepan-1-yl)pyrimidin-2-yl)prop-2-yn-1-yl)-2,3-dimethylpyrazolo[1,5-a]pyrazin-4(5H)-one] | 50 to 500 nM | – | 50 to 500 nM | – | +++ (+++=>70%) | 30 to 70% |
| CC(C)OCC#Cc1cc(N2CCN(c3cc(-c4ccccc4O)nnc3N)CC[C@H]2C)ccn1 [Compound P-383, 0-(5-{(R)-4-[2-(3-isopropoxy-1-propynyl)-4-pyridyl]-5-methyl-1,4-diazepan-1-yl}-6-amino-3-pyridazinyl)phenol] | < 50 nM | +++ (+++=>70%) | < 50 nM | 30 to 70% | – | – |
| C[C@@H]1CCN(c2cc(-c3ccccc3O)nnc2N)CCN1c1ccnc(C#CCN2CC3(CCC3(F)F)C2)n1 [Compound P-201, o-{5-[(R)-4-(2-{3-(5,5-difluoro-2-aza-2-spiro[3.3]hcptyl)-1-propynyl}-4-pyrimidinyl)-5-methyl-1,4-diazepan-1-yl]-6-amino-3-pyridazinyl}phenol] | 50 to 500 nM | – | 50 to 500 nM | – | +++ (+++=>70%) | 30 to 70% |
| C[C@@H]1CCN(c2cc(-c3ccccc3O)nnc2N)CCN1c1ccnc(C#CCN2C3CCCC2CC3)n1 [Compound P-228, o-{5-[(R)-4-(2-{3-(8-azabicyclo[3.2.1]oct-8-yl)-1-propynyl}-4-pyrimidinyl)-5-methyl-1,4-diazepan-1-y1]-6-amino-3-pyridazinyl}phenol] | < 50 nM | – | < 50 nM | – | ++ (++=30-70%) | 30 to 70% |
| Nc1nnc(-c2ccccc2O)cc1N1CCN(c2ccnc(C#CCNC(=O)c3cnc4ccccc4n3)n2)CC1 [Compound P-72, N-(3-(4-(4-(3-amino-6-(2-hydroxyphenyl)pyridazin-4-yl)piperazin-1-yl)pyrimidin-2-yl)prop-2-yn-1-yl)quinoxaline-2-carboxamide] | < 50 nM | – | < 50 nM | – | ++ (++=30-70%) | 30 to 70% |
| Nc1nnc(-c2ccccc2O)cc1N1CCCN(c2ccnc(C#CCN3CCN(C(=O)C4CC4)CC3)n2)CC1 [Compound P-365, {4-[3-(4-{4-[3-amino-6-(o-hydroxyphenyl)-4-pyridaziny1]-1,4-diazepan-1-yl}-2-pyrimidinyl)-2-propynyl]-1-piperazinyl}cyclopropylmethanone] | 500 to 5000 nM | – | 500 to 5000 nM | – | ++ (++=30-70%) | 30 to 70% |

More lines, now with the values ahead:

| DC50 [1] | SMARCA2 % Degradation @ 1 μM ([1]; 1 μM) | DC50 [2] | inhibition at 1 µM ([2]; 1 μM) | SMARCA2 % Degradation @ 1 μM ([1]; @ 1 μM) | inhibition at 1 µM ([2]; @ 1 μM) | SMILES |
| --- | --- | --- | --- | --- | --- | --- |
| 500 to 5000 nM | – | 500 to 5000 nM | – | ++ (++=30-70%) | < 30% | CC(C)(O)C#Cc1nccc(N2CCCN(c3cc(-c4ccccc4O)nnc3N)CC2)n1 [Compound P-341, 4-(4-{4-[3-amino-6-(0-hydroxyphenyl)-4-pyridaziny1]-1,4-diazepan-1-yl}-2-pyrimidinyl)-2-methyl-3-butyn-2-ol] |
| 50 to 500 nM | – | 50 to 500 nM | – | ++ (++=30-70%) | 30 to 70% | CCC1CN(c2ccnc(C#CCNC(=O)c3cc4ncccn4n3)n2)CCN1c1cc(-c2ccccc2O)nnc1N (centres unmarked) [Compound P-51, N-(3-(4-(4-(3-amino-6-(2-hydroxyphenyl)pyridazin-4-yl)-3-ethylpiperazin-1-yl)pyrimidin-2-yl)prop-2-yn-1-yl)pyrazolo[1,5-a]pyrimidine-2-carboxamide] |
| < 50 nM | – | < 50 nM | – | ++ (++=30-70%) | 30 to 70% | CN(C)CC#Cc1nccc(N2CC(n3cc(-c4cc(-c5ccccc5O)nnc4N)cn3)C2)n1 [Compound P-216, o-{6-amino-5-[1-(1-{2-[3-(dimethylamino)-1-propynyl]-4-pyrimidinyl}-3-azetidinyl)-4-pyrazolyl]-3-pyridazinyl} phenol] |
| 50 to 500 nM | – | 50 to 500 nM | – | ++ (++=30-70%) | < 30% | CNCC#Cc1nccc(N2C[C@H]3C[C@@H]2CN3c2cc(-c3ccccc3O)nnc2N)n1 [Compound P-295, 0-{5-[(1R,4R)-5-{2-[3-(methylamino)-1-propynyl]-4-pyrimidinyl}-2,5-diazabicyclo[2.2.1]hept-2-y1]-6-amino-3-pyridazinyl} phenol] |
| < 50 nM | – | < 50 nM | – | ++ (++=30-70%) | 30 to 70% | CN(C)CC#Cc1nccc(N2CCCC(c3cc(-c4ccccc4O)nnc3N)CC2)n1 (centres unmarked) [Compound P-172, o-[6-amino-5-(1-{2-[3-(dimethylamino)-1-propynyl]-4-pyrimidinyl}-4-azepanyl)-3-pyridazinyl]phenol] |
| 50 to 500 nM | – | 50 to 500 nM | – | +++ (+++=>70%) | 30 to 70% | CN(C)CC#Cc1nccc(N2CCCN(c3cc(-c4ccccc4O)nnc3N)CC2)n1 [Compound P-152, 2-(6-amino-5-(4-(2-(3-(dimethylamino)prop-1-yn-1-yl)pyrimidin-4-yl)-1,4-diazepan-1-yl)pyridazin-3-yl)phenol] |
| 500 to 5000 nM | – | 50 to 500 nM | – | ++ (++=30-70%) | 30 to 70% | Nc1nnc(-c2ccccc2O)cc1N1CC2CN(c3ccnc(C#CCNC(=O)c4cc5ncccn5n4)n3)C2C1 (centres unmarked) [Compound P-43, N-(3-(4-(3-(3-amino-6-(2-hydroxyphenyl)pyridazin-4-yl)-3,6-diazabicyclo[3.2.0]heptan-6-yl)pyrimidin-2-yl)prop-2-yn-1-yl)pyrazolo[1,5-a]pyrimidine-2-carboxamide] |
| 50 to 500 nM | – | 50 to 500 nM | – | ++ (++=30-70%) | 30 to 70% | Nc1nnc(-c2ccccc2O)cc1N1CCCN(c2ccnc(C#CCO)n2)CC1 [Compound P-125, 2-(6-amino-5-(4-(2-(3-hydroxyprop-1-yn-1-yl)pyrimidin-4-yl)-1,4-diazepan-1-yl)pyridazin-3-yl)phenol] |

From patent publication US20260265238A1, “COMPOUNDS AND PHARMACEUTICAL COMPOSITIONS THAT DEGRADE SWI/SNF-RELATED MATRIX-ASSOCIATED ACTIN-DEPENDENT REGULATOR OF CHROMATIN SUBFAMILY A” (Plexium, Inc., priority 2023, published 2026)
